Test results reported in patent publication US12371454B2, “Cyclic peptide compound having Kras inhibitory action” (priority 2019, dated 2025).
Starred links: 1 amine or outer side, 2 acyl side, 3 side chain; linkers in the order of their positions; H or OH if unused. Positions of bridges follow the written chain, without caps; N, C: chain ends. Non-standard residues stand in square brackets, D forms with d. Residues, ends and D or L forms follow the SMILES beside them. *: point of attachment. hPhe(3-Cl-4-CF3) = N[C@@H](CCc1ccc(C(F)(F)F)c(Cl)c1)C(=O)O; X63 = O=C(C(CCc1ccc(C(F)(F)F)c(Cl)c1)N[*:1])[*:2]; hPhe(4-CF3) = N[C@@H](CCc1ccc(C(F)(F)F)cc1)C(=O)O; NMePhe(3,4-F2) = CN[C@@H](Cc1ccc(F)c(F)c1)C(=O)O; ACHC(1R,2R) = O=C([C@@H]1CCCC[C@H]1N[*:1])[*:2]; NMePhe(4-Cl) = CN[C@@H](Cc1ccc(Cl)cc1)C(=O)O; NMePhe(4-Me) = CN[C@@H](Cc1ccc(C)cc1)C(=O)O; NMePhe(3-F) = CN[C@@H](Cc1cccc(F)c1)C(=O)O; NMedβ3hAla = C[C@H](CC(=O)[*:2])N(C)[*:1]; Abu(4,4,4-F3) = N[C@@H](CC(F)(F)F)C(=O)O; NMeAla(cPent) = CN[C@@H](CC1CCCC1)C(=O)O; NMeGly(cPent) = CN[C@H](C(=O)O)C1CCCC1; Phe(2-Cl) = N[C@@H](Cc1ccccc1Cl)C(=O)O; Phe(2-OMe) = COc1ccccc1C[C@H](N)C(=O)O; Phe(3-I) = N[C@@H](Cc1cccc(I)c1)C(=O)O; Pro(4,4-F2) = O=C(O)[C@@H]1CC(F)(F)CN1; X10 = CC(C)=CC[C@H](N[*:1])C(=O)[*:2]; X64 = CN(C)CCOCCN(CC(=O)[*:2])[*:1]; NMeCha = CN[C@@H](CC1CCCCC1)C(=O)O; Azetidine(3,3-F2) = FC1(F)CN(*)C1; NMeChg = CN[C@H](C(=O)O)C1CCCCC1; NMeF = CN[C@@H](Cc1ccccc1)C(=O)O; NMeI = CC[C@H](C)[C@H](NC)C(=O)O; NMeD = CN[C@@H](CC(=O)O)C(=O)O; NMeL = CN[C@@H](CC(C)C)C(=O)O; NMeV = CN[C@H](C(=O)O)C(C)C; d(β3hA) = C[C@@H](N)CC(=O)O; NMeA = CN[C@@H](C)C(=O)O; NMeAib = CNC(C)(C)C(=O)O; Nle = CCCC[C@H](N)C(=O)O; Piperidide = C1CCN(*)CC1; Pyrrolidide = C1CCN(*)C1; dNMeA = CN[C@H](C)C(=O)O; Ac5c = NC1(C(=O)O)CCCC1; Aze = O=C(O)[C@@H]1CCN1; Ac4c = NC1(C(=O)O)CCC1; Sar = CNCC(=O)O

target: T1, Kras and SOS1 (biotin-tagged human Kras loaded with GDP, His-tagged human SOS1) (Homo sapiens, UniProt P01116, G12D); test: Protein-protein interaction inhibition between Kras and SOS1 (KrasGl2D-SOS PPI) using AlphaScreen; format: binding; settings: AlphaScreen; biotin-tagged human Kras loaded with GDP, His-tagged human SOS1; read-out: KRAS G12D-SOS PPI IC50
T1 construct: made in house; host or cells: E. coli (stated for Kras only)
T1 sequence (P01116 1-188 isoform P01116-2 G12D): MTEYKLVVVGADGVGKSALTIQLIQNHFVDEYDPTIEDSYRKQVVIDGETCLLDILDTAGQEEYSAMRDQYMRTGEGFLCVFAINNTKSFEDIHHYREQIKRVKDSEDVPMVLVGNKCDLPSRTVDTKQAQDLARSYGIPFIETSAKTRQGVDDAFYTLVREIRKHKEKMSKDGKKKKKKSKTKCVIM
Outline: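 Kras was produced in E. coli, purified, then loaded with GDP. It was paired via streptavidin acceptor beads with His-SOS1 held on nickel donor beads, and proximity signal at 520-620 nm was read after 680 nm illumination.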

Row | Structure (SMILES) | IC50
1 | CC(C)=CC[C@@H]1NC(=O)[C@H](CC(C)C)N(C)C(=O)C[C@@H](C(=O)N2CCCCC2)N(C)C(=O)[C@H](C2CCCCC2)N(C)C(=O)C2(CCCC2)NC(=O)[C@@H]2CCCN2C(=O)[C@H](CCc2ccc(C(F)(F)F)c(Cl)c2)NC(=O)CN(C)C(=O)[C@H](CC2CCCCC2)N(C)C(=O)CN(C)C(=O)CN(C)C1=O [Compound 1134] ([NMeL][X10][Sar][Sar][NMeCha][Sar][hPhe(3-Cl-4-CF3)]P[Ac5c][NMeChg][NMeD]-Piperidide; lactam N-11) | 6 nM
2 | CC[C@H](C)[C@@H]1NC(=O)[C@H](C)N(C)C(=O)C[C@@H](C)NC(=O)[C@H](C2CCCC2)N(C)C(=O)C2(CCCC2)NC(=O)[C@@H]2CCCN2C(=O)[C@H](CCc2ccc(C(F)(F)F)c(Cl)c2)NC(=O)[C@@H](C)N(C)C(=O)[C@H](Cc2cccc(F)c2)N(C)C(=O)CN(C)C(=O)CN(C)C1=O [Compound 830] (cyclo([Ac5c][NMeGly(cPent)][d(β3hA)][NMeA]I[Sar][Sar][NMePhe(3-F)][dNMeA][hPhe(3-Cl-4-CF3)]P)) | 280 nM
3 | CC[C@H](C)[C@@H]1NC(=O)[C@H](CC(C)C)NC(=O)[C@@H]2CCCC[C@H]2NC(=O)[C@H](C(C)C)N(C)C(=O)C2(CCCC2)NC(=O)[C@@H]2CCCN2C(=O)[C@H](CCc2ccc(C(F)(F)F)c(Cl)c2)NC(=O)CN(C)C(=O)[C@H](CC2CCCCC2)N(C)C(=O)CN(C)C(=O)CN(C)C1=O [Compound 569] (cyclo([Ac5c][NMeV][ACHC(1R,2R)]LI[Sar][Sar][NMeCha][Sar][hPhe(3-Cl-4-CF3)]P)) | 73 nM
4 | CC[C@H](C)[C@@H]1NC(=O)[C@H](C)N(C)C(=O)C[C@@H](C(=O)N2CCCCC2)N(C)C(=O)[C@H](C(C)C)N(C)C(=O)[C@H](CC(F)(F)F)NC(=O)[C@H](CC(=O)N2CC(F)(F)C2)N(C)C(=O)[C@H](CCc2ccc(C(F)(F)F)c(Cl)c2)NC(=O)CN(C)C(=O)[C@H](CC2CCCCC2)N(C)C(=O)CN(C)C(=O)CN(C)C1=O [Compound 679] ([NMeA]I[Sar][Sar][NMeCha][Sar][hPhe(3-Cl-4-CF3)][NMeD](Azetidine(3,3-F2))[Abu(4,4,4-F3)][NMeV][NMeD]-Piperidide; lactam N-11) | 37 nM
5 | CC[C@H](C)[C@@H]1NC(=O)[C@H](CC(C)C)N(C)C(=O)C[C@@H](C(=O)N2CCCCC2)N(C)C(=O)[C@H](CC(C)C)NC(=O)C(C)(C)N(C)C(=O)[C@H](Cc2ccccc2OC)NC(=O)[C@H](Cc2cccc(I)c2)NC(=O)CN(C)C(=O)[C@H](Cc2ccc(C)cc2)N(C)C(=O)[C@@H]2CCN2C(=O)CN(C)C1=O [Compound 459] ([NMeL]I[Sar][Aze][NMePhe(4-Me)][Sar][Phe(3-I)][Phe(2-OMe)][NMeAib]L[NMeD]-Piperidide; lactam N-11) | 9.5 nM
6 | CC[C@H](C)[C@@H]1NC(=O)[C@H](CC(C)C)N(C)C(=O)C[C@@H](C(=O)N(C)C)N(C)C(=O)[C@H]([C@@H](C)CC)N(C)C(=O)C2(CCCC2)NC(=O)CN(CCOCCN(C)C)C(=O)C(CCc2ccc(C(F)(F)F)c(Cl)c2)NC(=O)CN(C)C(=O)[C@H](Cc2ccc(C)cc2)N(C)C(=O)[C@@H]2CCN2C(=O)[C@H](C)N(C)C1=O (stereo partly drawn) [Compound 2181, (3S,6S,9S,13S,16S,31S,34S)-25-[2-[3-chloro-4-(trifluoromethyl)phenyl]ethyl]-23-[2-[2-(dimethylamino)ethoxy]ethyl]-9-isobutyl-N,N,3,4,10,14,17,29,32-nonamethyl-6,16-bis[(1S)-1-methylpropyl]-2,5,8,11,15,18,21,24,27,30,33-undecaoxo-31-(p-tolylmethyl)spiro[1,4,7,10,14,17,20,23,26,29,32-undecazabicyclo[32.2.0]hexatriacontane-19,1′-cyclopentane]-13-carboxamide] ([NMeL]I[NMeA][Aze][NMePhe(4-Me)][Sar][X63][X64][Ac5c][NMeI][NMeD]-NMe2; lactam N-11) | 5.5 nM
7 | CC[C@H](C)[C@@H]1NC(=O)[C@H](C)N(C)C(=O)C[C@@H](C)NC(=O)[C@H](C2CCCC2)N(C)C(=O)C2(CCC2)NC(=O)[C@@H]2CCCN2C(=O)[C@H](CCc2ccc(C(F)(F)F)c(Cl)c2)NC(=O)CN(C)C(=O)[C@H](CC2CCCCC2)N(C)C(=O)CN(C)C(=O)CN(C)C1=O [Compound 1506] (cyclo([Ac4c][NMeGly(cPent)][d(β3hA)][NMeA]I[Sar][Sar][NMeCha][Sar][hPhe(3-Cl-4-CF3)]P)) | 2.9 nM
8 | CC[C@H](C)[C@@H]1NC(=O)[C@H](C)N(C)C(=O)C[C@@H](C(=O)N(C)C)N(C)C(=O)[C@H]([C@@H](C)CC)N(C)C(=O)C2(CCCC2)NC(=O)[C@H](Cc2ccc(F)c(F)c2)N(C)C(=O)[C@H](CCc2ccc(C(F)(F)F)c(Cl)c2)NC(=O)CN(C)C(=O)[C@H](Cc2ccc(C)cc2)N(C)C(=O)[C@@H]2CCN2C(=O)[C@H](C)N(C)C1=O [Compound 1878] ([NMeA]I[NMeA][Aze][NMePhe(4-Me)][Sar][hPhe(3-Cl-4-CF3)][NMePhe(3,4-F2)][Ac5c][NMeI][NMeD]-NMe2; lactam N-11) | 8.8 nM
9 | CCCC[C@@H]1NC(=O)[C@H](Cc2cccc(I)c2)NC(=O)CN(C)C(=O)[C@H](Cc2ccc(Cl)cc2)N(C)C(=O)CN(C)C(=O)CN(C)C(=O)[C@H]([C@@H](C)CC)NC(=O)[C@H](CC(C)C)N(C)C(=O)C[C@@H](C(=O)N2CCCCC2)N(C)C(=O)[C@H](CC(C)C)NC(=O)[C@H](Cc2ccc(C)cc2)N(C)C1=O [Compound 876] ([NMeL]I[Sar][Sar][NMePhe(4-Cl)][Sar][Phe(3-I)][Nle][NMePhe(4-Me)]L[NMeD]-Piperidide; lactam N-11) | 18 nM
10 | CC[C@H](C)[C@@H]1NC(=O)[C@H](C)N(C)C(=O)C[C@@H](C(=O)N2CCCC2)NC(=O)[C@H](CC(C)C)NC(=O)[C@H](Cc2ccccc2)N(C)C(=O)[C@H](CC(C)C)NC(=O)[C@H](CCc2ccc(C(F)(F)F)cc2)NC(=O)CN(C)C(=O)[C@H](Cc2ccc(Cl)cc2)N(C)C(=O)CN(C)C(=O)CN(C)C1=O [Compound 372] ([NMeA]I[Sar][Sar][NMePhe(4-Cl)][Sar][hPhe(4-CF3)]L[NMeF]LD-Pyrrolidide; lactam N-11) | 130 nM
11 | CC[C@H](C)[C@@H]1NC(=O)[C@H](CC(C)C)N(C)C(=O)C[C@@H](C(=O)N2CCCCC2)N(C)C(=O)[C@H](C(C)C)N(C)C(=O)C2(CCCC2)NC(=O)[C@H](C)NC(=O)[C@H](CCc2ccc(C(F)(F)F)c(Cl)c2)NC(=O)CN(C)C(=O)[C@H](CC2CCCCC2)N(C)C(=O)[C@@H]2CCN2C(=O)[C@H](C)N(C)C1=O [Compound 1316] ([NMeL]I[NMeA][Aze][NMeCha][Sar][hPhe(3-Cl-4-CF3)]A[Ac5c][NMeV][NMeD]-Piperidide; lactam N-11) | 3.2 nM
12 | CC[C@H](C)[C@@H]1NC(=O)[C@H](C)N(C)C(=O)C[C@@H](C)NC(=O)[C@H](C2CCCC2)N(C)C(=O)C2(CCCC2)NC(=O)[C@@H]2CCCN2C(=O)[C@H](CCc2ccc(C(F)(F)F)c(Cl)c2)NC(=O)[C@H]2CCCN2C(=O)[C@H](CC2CCCCC2)N(C)C(=O)CN(C)C(=O)CN(C)C1=O [Compound 1543] (cyclo([Ac5c][NMeGly(cPent)][d(β3hA)][NMeA]I[Sar][Sar][NMeCha][dP][hPhe(3-Cl-4-CF3)]P)) | 160 nM
13 | CC[C@H](C)[C@@H]1NC(=O)[C@H](CC(C)C)N(C)C(=O)C[C@@H](C)N(C)C(=O)[C@H](CC2CCCC2)N(C)C(=O)C2(CCCC2)NC(=O)[C@@H]2CCCN2C(=O)[C@H](CCc2ccc(C(F)(F)F)c(Cl)c2)NC(=O)CN(C)C(=O)[C@H](CC2CCCCC2)N(C)C(=O)CN(C)C(=O)CN(C)C1=O [Compound 991] (cyclo([Ac5c][NMeAla(cPent)][NMedβ3hAla][NMeL]I[Sar][Sar][NMeCha][Sar][hPhe(3-Cl-4-CF3)]P)) | 76 nM
14 | CC[C@H](C)[C@@H]1NC(=O)[C@H](C)N(C)C(=O)C[C@@H](C)NC(=O)[C@H](C(C)C)N(C)C(=O)C2(CCCC2)NC(=O)[C@@H]2CCCN2C(=O)[C@H](CCc2ccc(C(F)(F)F)c(Cl)c2)NC(=O)[C@@H](C)N(C)C(=O)[C@H](CC2CCCCC2)N(C)C(=O)CN(C)C(=O)CN(C)C1=O [Compound 773] (cyclo([Ac5c][NMeV][d(β3hA)][NMeA]I[Sar][Sar][NMeCha][dNMeA][hPhe(3-Cl-4-CF3)]P)) | 140 nM
15 | CC[C@H](C)[C@@H]1NC(=O)[C@H](CC(C)C)N(C)C(=O)C[C@@H](C)N(C)C(=O)[C@H](C2CCCCC2)N(C)C(=O)C2(CCC2)NC(=O)[C@@H]2CC(F)(F)CN2C(=O)[C@H](CCc2ccc(C(F)(F)F)c(Cl)c2)NC(=O)CN(C)C(=O)[C@H](Cc2ccc(C)cc2)N(C)C(=O)CN(C)C(=O)CN(C)C1=O [Compound 375] (cyclo([Ac4c][NMeChg][NMedβ3hAla][NMeL]I[Sar][Sar][NMePhe(4-Me)][Sar][hPhe(3-Cl-4-CF3)][Pro(4,4-F2)])) | 12 nM
16 | CC[C@H](C)[C@@H]1NC(=O)[C@H](CC(C)C)N(C)C(=O)C[C@@H](C(=O)N2CCCCC2)N(C)C(=O)[C@H](CC(C)C)NC(=O)C(C)(C)N(C)C(=O)[C@H](Cc2ccccc2Cl)NC(=O)[C@H](Cc2cccc(I)c2)NC(=O)CN(C)C(=O)[C@H](Cc2ccc(C)cc2)N(C)C(=O)CN(C)C(=O)CN(C)C1=O [Compound 706] ([NMeL]I[Sar][Sar][NMePhe(4-Me)][Sar][Phe(3-I)][Phe(2-Cl)][NMeAib]L[NMeD]-Piperidide; lactam N-11) | 66 nM
17 | CC[C@H](C)[C@@H]1NC(=O)[C@H](CC(C)C)N(C)C(=O)C[C@@H](C(=O)N(C)C)N(C)C(=O)[C@H](C2CCCC2)N(C)C(=O)C2(CCCC2)NC(=O)[C@@H](C)NC(=O)[C@H](CCc2ccc(C(F)(F)F)c(Cl)c2)NC(=O)CN(C)C(=O)[C@H](CC2CCCCC2)N(C)C(=O)[C@@H]2CCN2C(=O)[C@H](C)N(C)C1=O [Compound 191] ([NMeL]I[NMeA][Aze][NMeCha][Sar][hPhe(3-Cl-4-CF3)][dA][Ac5c][NMeGly(cPent)][NMeD]-NMe2; lactam N-11) | 3.4 nM
